Where two headings read alike, the source gives them in different places.

Series [1] in a line: in vivo. The conditions noted are these: rat, po.
Series [2] relates to Mexican bean beetle. Kind of series: whole plant or invertebrate. Conditions: Epilachna varivestis.
Series [3] deals with Southern army worm. Kind of series: whole plant or invertebrate. Conditions: Spodoptera eridania; for mortality at 250 ppm: read-out: Mortality, % - Southern ArmyWorm.
The test system of series [4] is Bean aphids. Nature of the series: whole plant or invertebrate. Conditions: Aphis fabae, 48 h.
The subject of series [5] is Spider mites. Nature of the series: Mite, Systemic. It is filed as in vivo, two-spotted mite. The conditions noted are these: Tetranychus urticae. As to the method:
(§1) In the insecticidal and miticidal tests, the experimental compounds were tested as aqueous emulsions. These emulsions were prepared by dissolving the compound in acetone and dispersing it in distilled water with Triton X-100, an alkylaryl polyether alcohol derived by the reaction of i-octylphenol with ethylene oxide, to give spray emulsions containing the desired concentrations of the compound. These emulsions were then used in standard laboratory tests described below.
Mite, Systemic: Bean plants infested with the two-spotted mites were treated by applying 20 ml. of the formulated test chemical to the soil.

Series [6] deals with Spider mites. Nature of the series: whole plant or invertebrate. The conditions noted are these: Tetranychus urticae.
Series [7] deals with Root-knot nematode. Conditions: in vivo.
For series [8], the system named is Bean aphids. Kind of series: Aphid, Systemic. The format is in vivo, bean aphid. The conditions noted are these: Aphis fabae, 48 h. As to the method:
as §1
Aphid, Systemic: Nasturtium plants infested with the bean aphid were treated by applying 20 ml. of the formulated test chemical to the soil. The degree of aphid control was rated after 2 days.

Series [9] can be described thus: Thermal stability of products (GC / nmr observation). It is filed as physicochemical. Conditions: for thermal stability: general statement. An excerpt: The corresponding primary alkyl derivatives such as the S'-n-propyl compound are stable under similar conditions.
The ethyl sulfinylmethyl product was unstable at room temperature.

In series [10] the test system is Corn rootworm larvae. Kind of series: whole plant or invertebrate. Conditions: soil, 120 h.
For series [11], the system named is Southern army worm. Conditions: in vivo.
For series [12], the system named is House fly. Nature of the series: whole plant or invertebrate. Conditions: Musca domestica, 48 h.
Series [13] deals with Bollworm larvae. Kind of series: Bollworm test on cotton plants. It is filed as in vivo. The conditions noted are these: Helicoverpa zea, Table XIV, 0.5 lbs/acre. Here is the method: Bollworms: Bollworm larvae used in the present study were progeny of adult moths collected from light traps stationed in cotton fields. The larvae were reared on the Vanderzant-Adkisson Special Wheat Germ Diet for Insects. This diet was fortified with Vanderzant's Insect Vitamin Fortification. The diet and the vitamin fortification were obtaind from Nutritional Biochemicals Corporation, Cleveland, Ohio. The larvae were reared and tested in continuous illumination at 78±5° […]. Only third and fourth instar larvae which weighed between 25 and 60 mg. were used in the tests.
Insecticidal sprays were made by the conventional low-volume (CLV) method. CLV sprays were applied through a 6X hollow-cone nozzle calibrated to deliver the equivalent of 3.5 ga./acre of the water/emulsion spray mixture. Sprays were applied to individual cotton plants grown in one gallon buckets. After treatment the plants were allowed to dry for 1 to 2 hours in the open air before being transported to a holding room. The larvae were placed on the treated leaf surfaces and held singly in small snap-on type plastic screen cages of about 11/2 inches in diameter. Untreated control groups were maintained for each test replicate so that treatment mortalities could be adjusted according to Abbott's formula. Treatments were replicated 3 times. Each replicate contained 20 larvae. […]

Setting [14] is: read-out: Mortality, % - Bean Aphids Contact.
Where [15] appears, read: read-out: Mortality, % - Spider Mites Systemic.
Where [16] appears, read: 48 h, read-out: Mortality, % - Spider Mites Contact.
The mark [17] stands for this setting: read-out: Mortality, % - Mexican Bean Beetle.
Where [18] appears, read: read-out: Mortality, % - Bean Aphids Systemic.
[19] abbreviates: read-out: Mortality of Southern Armyworm, %.
[20] abbreviates: read-out: Mortality Produced, % - Mex.Bean Beetle.
The mark [21] stands for this setting: read-out: Mortality Produced, % - House Flies.
Where [22] appears, read: read-out: Mortality Produced, % - Bean Aphids Systemic.
The mark [23] stands for this setting: read-out: Mortality Produced, % -.
[24] abbreviates: read-out: Mortality Produced, % - Spider Mites Systemic.
[25] abbreviates: 48 h, read-out: Mortality Produced, % - Spider Mites Contact.
The mark [26] stands for this setting: 24 h, read-out: Per Cent Mortality (24 hours After Application).
[27] abbreviates: 48 h, read-out: Per Cent Mortality (48 hours After Application).
Setting [28] is: 72 h, read-out: Per Cent Mortality (72 hours After Application).

What is called LD50 is the dose at which mortality reaches 50%. A high value points to a less toxic substance. The compound `CCCSCCSP(=O)(OCC)SCCC` (stereo not drawn) [2 (CIP)] gave an LD50 at 336 h in series [1] of 215 mg/kg.
The mortality is the percentage killed. On to `CCCSP(=O)(OCC)SCCSC(C)C` (stereo not drawn) [Example 3, O-Ethyl S-1-Propyl S'-2-i-Propylthioethyl Dithiophosphate], for which the mortality at 250 ppm in series [2] (read-out: Mortality, % - Mexican Bean Beetles) came to 100%; in [3] it was 100%; in series [4] (setting [14]), 70%; in series [5] (setting [15]) it was 85%; in [6] (setting [16]) it was 100%.
As to `CCCSP(=O)(OCC)SCCS(C)(=O)=O` (stereo not drawn) [Example 7, O-Ethyl S-1-Propyl S'-(2-Methylsulfonylethyl) Dithiophosphate], the “Nematode Control,% at 25 lb/acre” value in [7] is 100%. Besides, the mortality at 250 ppm in [2] (setting [17]), in [8] (setting [18]), in [3], in [4] (setting [14]), in [5] (setting [15]) and in series [6] (setting [16]) was 100% in each case. For the same compound, in series [1], the LD50 at 336 h was over 100 mg/kg.
For `CCCSP(=O)(OCC)SCC[S+]([O-])C(C)C` (stereo not drawn) [Example 8, O-Ethyl S-1-Propyl S'-2-i-Propylsulfinylethyl Dithiophosphate], the “Nematode Control,% at 25 lb/acre” value in series [7] was 75%. In addition, the mortality at 250 ppm in series [2] (setting [17]) came out at 100%; in [3], 90%; in [4] (setting [14]), 100%; in [5] (setting [15]), 90%; in [6] (setting [16]), 95%.
`CCCSP(=O)(OCC)SCC(C)S(C)(=O)=O` (stereo not drawn) [Example 9, O-Ethyl S-1-Propyl S'-2-Methylsulfonylpropyl Dithiophosphate]: the “Nematode Control,% at 25 lb/acre” value in series [7] came to 80%. In addition, the mortality at 250 ppm in [2] (setting [17]) came to 100%; in series [8] (setting [18]), 95%; in series [3] it was 100%; in [4] (setting [14]), 90%; in [5] (setting [15]), 90%; in series [6] (setting [16]), 90%.
Consider `CCOP(=O)(SCCSCC)SC(C)(C)C` (stereo not drawn) [Example 10, O-Ethyl S-t-Butyl S'-2-Ethylthioethyl Dithiophosphate], for which, in series [3] (setting [19]), the mortality at 50 ppm was found to be 0% and the mortality at 100 ppm was determined as 0%. Moreover, the thermal stability result in [9] is listed as “thermally highly unstable”. Besides, the “thermal stability on gas chromatographic analysis” value in series [9] (injector temperature of 200° C) is given as “decomposed to yield isobutylene”.
`CCOP(=O)(SCSCC)SCC(C)C` (stereo not drawn) [Example 12, O-Ethyl S-Isobutyl S'Ethylthiomethyl Dithiophosphate]: in series [9], the thermal stability result was “thermal instability”.
As to `CCCSP(=O)(OCC)SCC(C)SC(C)C` (stereo not drawn) [Example 35, O-Ethyl S-1-Propyl S'-2-i-Propylthiopropyl Dithiophosphate], the “Nematode Control,%” value in [7] is recorded as 100%. Further, the results for the mortality at 50 ppm in series [2] (read-out: Mexican Bean Beetles Mortality,%) and in series [4] (read-out: Bean Aphids Mortality,%) were 100% and 50%, respectively. In addition, the mortality at 2.5 ppm in series [10] (read-out: Corn Rootworm Mortality,%) turned out to be 70%. Moreover, the “S.Armyworm Mortality,%” value in [11] came to 100%. Also, the mortality at 10 ppm in series [6] (read-out: Spider Mites Mortality,%) was 100%.
Consider `CCCSP(=O)(OCC)SCC(CC)SC` (stereo not drawn) [Example 38, O-Ethyl S-1-Propyl S'-2-Methylthiobutyl Dithiophosphate], for which the “Nematodes Control % at 25 lb/acre” value in [7] stood at 90%. Moreover, the mortality at 50 ppm in series [2] (read-out: Mortality Produced at 50 ppm, % - Mexican Bean Beetles) is 10%; in series [12] (read-out: Mortality Produced at 50 ppm, % - Houseflies), 100%; in [4] (read-out: Mortality Produced at 50 ppm, % - Bean Aphids), 100%; in [6] (read-out: Mortality Produced at 50 ppm, % - Spider Mites), 100%. Besides, in series [10] (read-out: Corn Rootworm Mortality, % at 2.5 ppm), the mortality at 2.5 ppm stood at 40%. For the same compound, in series [11] (southern armyworm), the “Mortality Produced at 50 ppm, % - Southern Army Worm” value is given as 80%.
Regarding `CCCOP(=O)(SCCC)SCC(C)SC` (stereo not drawn) [Example 43, O,S-Di-n-propyl S'-2-Methylthiopropyl dithiophosphate], the mortality at 50 ppm in series [2] (setting [20]) was 80%; in series [12] (setting [21]) it was 70%; in series [8] (setting [22]), 0%; in [4] (setting [23]), 80%; in [5] (setting [24]) it was 0%; in series [6] (setting [25]), 50%. The mortality at 250 ppm amounted to 100% in series [2] (setting [20]); 100% in series [12] (setting [21]); 20% in [8] (setting [22]); 80% in series [4] (setting [23]); 100% in series [5] (setting [24]); 100% in series [6] (setting [25]). Besides, in series [11] (southern armyworm), the “Mortality Produced, % - S.Army Worm” value came to 0%.
As to `CCCSP(=O)(OCC)SCCSC` (stereo not drawn) [drawing 52], the mortality at 560.425 g/ha in [13] (setting [26]) was 72%; in series [13] (setting [27]), 80%; in [13] (setting [28]) it was 89%.
For `CCCSP(=O)(OCC)SCC(C)SC` (stereo not drawn) [drawing 53], in that order: 84%, 96% and 96%.
Consider `CCCSC(C)CSP(=O)(OCC)SCCC` (stereo not drawn) [drawing 54], for which the mortality at 560.425 g/ha in series [13] (setting [26]) amounted to 87%; in [13] (setting [27]) it was 94%; in series [13] (setting [28]), 99%.
For `CCCSP(=O)(OCC)SC[S+]([O-])CC` (stereo not drawn) [ethyl sulfinylmethyl product], the “stability (nmr)” value in series [9] (room temperature) is “unstable”.
For the compound `CCOP(=O)(SCC(C)C)SC[S+]([O-])CC` (stereo not drawn) [ethylsulfinylmethyl ester, O-ethyl S-isobutyl S'-ethylsulfinylmethyl dithiophosphate], the thermal stability result in series [9] was “thermal instability”.
Regarding `CCOP(=O)(SCC)SCCSCC` (stereo not drawn) [reference compound], the median lethal dose (LD50) at 336 h in series [1] turned out to be 100 mg/kg.
In the case of `CCOP(=S)(OCC)SCC(C)SC` (stereo not drawn) [reference compound], in series [1], the LD50 at 336 h was in the range of 25 to 50 mg/kg.
Regarding `CCOP(=S)(OCC)SCC(C)SCC` (stereo not drawn) [reference compound], in series [1], the LD50 at 336 h lay within 25 to 50 mg/kg.

The record behind these values is patent US4075332A (priority 1976, dated 1978).
